Experiments:
[1] = molecular target: T1, human recombinant adrenergic α1D receptor (Homo sapiens, UniProt P25100); assay: Adrenergic α1D radioligand binding ([3H]Prazosin); conditions: compound at 0.1 μM; read-out: Percentage inhibition of ligand binding, Adrenergic (0.1 μM) a1D
T1 construct: expressed in transfected cells; host or cells: human embryonic kidney (HEK-293) cells
T1 sequence (P25100 1-572): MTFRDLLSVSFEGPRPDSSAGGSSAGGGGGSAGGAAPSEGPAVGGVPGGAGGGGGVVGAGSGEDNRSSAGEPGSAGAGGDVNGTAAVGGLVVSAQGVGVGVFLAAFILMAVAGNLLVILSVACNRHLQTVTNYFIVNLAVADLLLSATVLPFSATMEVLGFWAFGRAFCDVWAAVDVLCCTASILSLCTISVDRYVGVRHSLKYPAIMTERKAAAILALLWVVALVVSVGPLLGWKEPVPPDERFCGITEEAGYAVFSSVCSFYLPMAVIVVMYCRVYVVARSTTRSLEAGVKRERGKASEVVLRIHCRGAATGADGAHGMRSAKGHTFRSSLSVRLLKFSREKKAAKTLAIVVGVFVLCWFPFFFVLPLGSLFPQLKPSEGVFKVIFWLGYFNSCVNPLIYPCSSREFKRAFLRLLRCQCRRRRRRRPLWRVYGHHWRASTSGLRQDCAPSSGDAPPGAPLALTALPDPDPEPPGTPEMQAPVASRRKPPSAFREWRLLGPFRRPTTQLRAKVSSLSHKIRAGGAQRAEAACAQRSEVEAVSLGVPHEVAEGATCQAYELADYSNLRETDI
Experimental: To evaluate in radioligand binding assays the activity of compounds of the invention, human recombinant adrenergic α1D receptor expressed in human embryonic kidney (HEK-293) cells (Kenny, B. et al, Br. J. Pharmacol. 115(6):981, 1995) in a 50 mM Tris-HCl buffer, pH 7.4, was used. Compounds of invention were incubated with 0.6 nM [^3H]Prazosin for 60 min at 25° C. Non-specific binding was estimated in the presence of 10 μM phentolamine. Receptor proteins were filtered and washed, the filters were then counted to determine [^3H]Prazosin specifically bound. Compounds were screened at 1 μM or lower, using 1% DMSO as vehicle. Biochemical assay results are presented as the percent inhibition of specific binding in Table 3.

[2] = molecular target: human recombinant dopamine D2L receptor (Homo sapiens, UniProt P14416); assay: Dopamine D2L radioligand binding ([3H]Spiperone); conditions: compound at 0.2 μM; read-out: Percentage inhibition of ligand binding, Dopamine (0.2 μM) D2L
human recombinant dopamine D2L receptor, sequence (P14416 whole entry): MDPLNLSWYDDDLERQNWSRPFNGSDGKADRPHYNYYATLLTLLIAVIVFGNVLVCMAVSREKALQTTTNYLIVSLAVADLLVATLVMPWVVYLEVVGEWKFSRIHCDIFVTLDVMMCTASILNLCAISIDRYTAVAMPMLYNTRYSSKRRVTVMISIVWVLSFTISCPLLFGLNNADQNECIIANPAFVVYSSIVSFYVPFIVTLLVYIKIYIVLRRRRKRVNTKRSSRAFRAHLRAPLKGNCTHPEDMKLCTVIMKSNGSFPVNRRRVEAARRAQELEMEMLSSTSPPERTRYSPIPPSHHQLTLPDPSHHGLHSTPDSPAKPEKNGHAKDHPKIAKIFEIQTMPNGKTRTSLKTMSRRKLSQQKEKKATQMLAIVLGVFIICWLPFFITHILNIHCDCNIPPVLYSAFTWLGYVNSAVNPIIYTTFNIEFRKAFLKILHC
Experimental: To evaluate in radioligand binding assays the activity of compounds of the invention, human recombinant dopamine D2L receptor expressed in Chinese hamster ovary (CHO) cells (Grandy, D. et al, Proc. Natl. Acad. Sci. USA. 86:9762, 1989; Hayes, G. et al, Mol. Endocrinol. 6:920, 1992) in a modified Tris-HCl buffer (50 mM Tris-HCl, pH 7.4, 1.4 mM Ascorbic Acid, 0.001% BSA, 150 mM NaCl) was used. Compounds of the invention were incubated with 0.16 nM [^3H]Spiperone for 120 min at 25° C. Non-specific binding was estimated in the presence of 10 μM Haloperidol. Receptor proteins were filtered and washed, the filters were then counted to determine [^3H]Spiperone specifically bound. Compounds were screened at 1 μM or lower, using 1% DMSO as vehicle. Biochemical assay results are presented as the percent inhibition of specific binding in Table 3.

[3] = molecular target: T2, human recombinant serotonin (5-Hydroxytryptamine) 5-HT2A receptor (Homo sapiens, UniProt P28223); assay: Serotonin 5-HT2A radioligand binding ([3H]Ketanserin); conditions: compound at 0.1 μM; read-out: Percentage inhibition of ligand binding, Serotonin (0.1 μM) 5-HT2A
T2 construct: expressed in transfected cells; host or cells: Chinese hamster ovary (CHO) K1 cells
T2 sequence (P28223 whole entry): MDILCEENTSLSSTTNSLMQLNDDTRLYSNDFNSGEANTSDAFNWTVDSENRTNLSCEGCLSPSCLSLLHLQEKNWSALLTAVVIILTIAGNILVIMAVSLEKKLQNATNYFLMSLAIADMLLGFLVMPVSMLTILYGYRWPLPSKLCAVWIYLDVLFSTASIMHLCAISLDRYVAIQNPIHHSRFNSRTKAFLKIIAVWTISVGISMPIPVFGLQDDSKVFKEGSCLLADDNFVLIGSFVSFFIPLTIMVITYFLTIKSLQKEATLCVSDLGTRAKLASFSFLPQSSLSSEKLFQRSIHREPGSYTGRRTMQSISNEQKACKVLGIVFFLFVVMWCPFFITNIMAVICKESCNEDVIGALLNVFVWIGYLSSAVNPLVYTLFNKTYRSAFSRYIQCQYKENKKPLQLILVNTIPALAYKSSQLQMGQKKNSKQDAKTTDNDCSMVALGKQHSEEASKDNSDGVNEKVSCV
Experimental: To evaluate in radioligand binding assays the activity of compounds of the invention, human recombinant serotonin (5-Hydroxytryptamine) 5-HT2A receptor expressed in Chinese hamster ovary (CHO) K1 cells (Bonhaus, D. et al, Br. J. Pharmacol. 115:622, 1995; Saucier, C. et al, J. Neurochem. 68:1998, 1997) in a 50 mM Tris-HCl buffer, pH 7.4, was used. Compounds of the invention were incubated with 0.5 nM [^3H]Ketanserin for 60 min at 25° C. Non-specific binding was estimated in the presence of 1 μM Mianserin. Receptor proteins were filtered and washed, the filters were then counted to determine [^3H]Ketanserin specifically bound. Compounds were screened at 1 μM or lower, using 1% DMSO as vehicle. Biochemical assay results are presented as the percent inhibition of specific binding in Table 4.

[4] = molecular target: T3, human recombinant serotonin (5-Hydroxytryptamine) 5-HT5A receptor (Homo sapiens, UniProt P47898); assay: Serotonin 5-HT5A radioligand binding ([3H]LSD); conditions: compound at 0.1 μM; read-out: Percentage inhibition of ligand binding, Serotonin (0.1 μM) 5-HT5A
T3 construct: expressed in transfected cells; host or cells: Chinese hamster ovary (CHO) K1 cells
T3 sequence (P47898 whole entry): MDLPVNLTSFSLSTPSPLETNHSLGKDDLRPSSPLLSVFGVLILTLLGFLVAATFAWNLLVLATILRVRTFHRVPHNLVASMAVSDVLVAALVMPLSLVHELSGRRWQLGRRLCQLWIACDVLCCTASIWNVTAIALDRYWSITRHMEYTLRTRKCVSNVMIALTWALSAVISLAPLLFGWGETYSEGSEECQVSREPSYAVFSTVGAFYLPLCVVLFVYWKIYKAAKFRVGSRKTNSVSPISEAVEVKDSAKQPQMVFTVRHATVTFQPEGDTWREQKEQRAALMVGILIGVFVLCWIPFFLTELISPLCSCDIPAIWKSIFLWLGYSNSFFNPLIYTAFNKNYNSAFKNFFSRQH
Experimental: To evaluate in radioligand binding assays the activity of compounds of the invention, human recombinant serotonin (5-Hydroxytryptamine) 5-HT5A receptor expressed in Chinese hamster ovary (CHO) K1 cells (Rees, S. et al, FEBS Lett. 355:242, 1994) in a modified Tris-HCl buffer (50 mM Tris-HCl, pH 7.4, 10 mM MgCl2, 0.5 mM EDTA) was used. Compounds of the invention were incubated with 1.7 nM [^3H]Lysergic acid diethylamide (LSD) for 60 min at 37° C. Non-specific binding was estimated in the presence of 100 μM Serotonin (5-HT). Receptor proteins were filtered and washed, the filters were counted to determine [^3H]LSD specifically bound. Compounds were screened at 1 μM or lower, using 1% DMSO as vehicle. Biochemical assay results are presented as the percent inhibition of specific binding in Table 4.

[5] = molecular target: human recombinant serotonin (5-Hydroxytryptamine) 5-HT7 receptor (Homo sapiens, UniProt P34969); assay: Serotonin 5-HT7 radioligand binding ([3H]LSD); conditions: compound at 0.1 μM; read-out: Percentage inhibition of ligand binding, Serotonin (0.1 μM) 5-HT7
human recombinant serotonin (5-Hydroxytryptamine) 5-HT7 receptor, sequence (P34969 whole entry): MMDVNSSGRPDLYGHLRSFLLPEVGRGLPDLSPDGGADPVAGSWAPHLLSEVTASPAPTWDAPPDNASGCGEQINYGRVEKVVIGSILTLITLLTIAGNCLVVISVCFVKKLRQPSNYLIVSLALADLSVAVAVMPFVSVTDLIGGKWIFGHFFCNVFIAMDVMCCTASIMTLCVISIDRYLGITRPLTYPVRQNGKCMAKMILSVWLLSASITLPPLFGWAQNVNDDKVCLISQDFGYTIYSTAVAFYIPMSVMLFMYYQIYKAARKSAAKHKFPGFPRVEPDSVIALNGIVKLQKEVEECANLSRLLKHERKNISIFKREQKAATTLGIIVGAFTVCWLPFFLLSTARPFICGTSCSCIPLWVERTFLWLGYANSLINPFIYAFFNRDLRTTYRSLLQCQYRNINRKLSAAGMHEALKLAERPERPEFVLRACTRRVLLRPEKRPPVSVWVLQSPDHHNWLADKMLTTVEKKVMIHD
Experimental: To evaluate in radioligand binding assays the activity of compounds of the invention, human recombinant serotonin (5-Hydroxytryptamine) 5-HT7 receptor expressed in Chinese hamster ovary (CHO) cells (Roth, B. et al, J. Pharmacol. Exp. Ther. 268:1403, 1994; Shen, Y. et al, J. Biol. Chem. 268:18200, 1993) in a modified Tris-HCl buffer (50 mM Tris-HCl, pH 7.4, 10 mM MgCl2, 0.5 mM EDTA) was used. Compounds of invention were incubated with 5.5 nM [^3H] Lysergic acid diethylamide (LSD) for 2 h at 25° C. Non-specific binding was estimated in the presence of 10 μM Serotonin (5-HT). Receptor proteins were filtered and washed, the filters were then counted to determine [^3H]LSD specifically bound. Compounds were screened at 1 μM or lower, using 1% DMSO as vehicle. Biochemical assay results are presented as the percent inhibition of specific binding in Table 4.

| Structure (SMILES) | inhibition at 0.1 µM [1] [%] | inhibition at 0.2 µM [2] [%] | inhibition at 0.1 µM [3] [%] | inhibition at 0.1 µM [4] [%] | inhibition at 0.1 µM [5] [%] |
| --- | --- | --- | --- | --- | --- |
| Cc1ccc2c(c1)c1c(n2C)C(C)(CCc2nc(-c3ccccc3)cs2)CN(C)C1 (stereo not shown) [Compound 48] | 13 | -5 | 39 | -3 | 17 |
| C#CCC1(C)CN(C)Cc2c1n(C)c1ccc(C)cc21 (stereo not shown) [Compound 47, 2,4,5,8-tetramethyl-4-(prop-2-ynyl)-2,3,4,5-tetrahydro-1H-pyrido[4,3-b]indole] | 10 | 5 | 32 | 34 | 13 |
